The values that follow come from patent US4808718A, “Fused polycyclic and bridged compounds useful as calcium channel blockers” (Merck & Co., Inc., priority 1986, dated 1989).

In the assay the target is T1, nitrendipine binding (purified sarcolemal vesicles) (Homo sapiens, UniProt Q13936).
T1 construct: purified sarcolemal vesicles in 50 mM tris-HCl; from tissue
Description: nitrendipine binding assay ([^3 H] nitrendipine, purified sarcolemal vesicles). As for the experimental part: As stated earlier, the compounds of the present invention have a property that enables them to be used as calcium entry blockers in the treatment of cardiovascular disorders.
In a representative assay, […] of purified sarcolemal vesicles in 50 mM tris-HCl, 10 uM calcium chloride, and […] magnesium chloride at pH 7.4 were incubated with […] [^3 H] nitrendipine (78 Ci/mmol) with or without test compound in a final volume of […] for 3 hours at 25° C. The inhibition constant Ki is determined according to the following equation: [formula] where I50 is the compound concentration that produces 50 percent inhibiton of binding, [L] is ligand concentration, and kd is the affinity constant of the ligand.

Setting [1] is: purified sarcolemal vesicles, 50 mM tris-HCl, pH 7.4, 0.23 mM [^3 H] nitrendipine, 3 hours at 25° C., read-out: Ki, Inhibition of Nitrendipine Binding.

Read-outs that look alike come from different tables or passages of the source.

T1 sequence (Q13936 whole entry): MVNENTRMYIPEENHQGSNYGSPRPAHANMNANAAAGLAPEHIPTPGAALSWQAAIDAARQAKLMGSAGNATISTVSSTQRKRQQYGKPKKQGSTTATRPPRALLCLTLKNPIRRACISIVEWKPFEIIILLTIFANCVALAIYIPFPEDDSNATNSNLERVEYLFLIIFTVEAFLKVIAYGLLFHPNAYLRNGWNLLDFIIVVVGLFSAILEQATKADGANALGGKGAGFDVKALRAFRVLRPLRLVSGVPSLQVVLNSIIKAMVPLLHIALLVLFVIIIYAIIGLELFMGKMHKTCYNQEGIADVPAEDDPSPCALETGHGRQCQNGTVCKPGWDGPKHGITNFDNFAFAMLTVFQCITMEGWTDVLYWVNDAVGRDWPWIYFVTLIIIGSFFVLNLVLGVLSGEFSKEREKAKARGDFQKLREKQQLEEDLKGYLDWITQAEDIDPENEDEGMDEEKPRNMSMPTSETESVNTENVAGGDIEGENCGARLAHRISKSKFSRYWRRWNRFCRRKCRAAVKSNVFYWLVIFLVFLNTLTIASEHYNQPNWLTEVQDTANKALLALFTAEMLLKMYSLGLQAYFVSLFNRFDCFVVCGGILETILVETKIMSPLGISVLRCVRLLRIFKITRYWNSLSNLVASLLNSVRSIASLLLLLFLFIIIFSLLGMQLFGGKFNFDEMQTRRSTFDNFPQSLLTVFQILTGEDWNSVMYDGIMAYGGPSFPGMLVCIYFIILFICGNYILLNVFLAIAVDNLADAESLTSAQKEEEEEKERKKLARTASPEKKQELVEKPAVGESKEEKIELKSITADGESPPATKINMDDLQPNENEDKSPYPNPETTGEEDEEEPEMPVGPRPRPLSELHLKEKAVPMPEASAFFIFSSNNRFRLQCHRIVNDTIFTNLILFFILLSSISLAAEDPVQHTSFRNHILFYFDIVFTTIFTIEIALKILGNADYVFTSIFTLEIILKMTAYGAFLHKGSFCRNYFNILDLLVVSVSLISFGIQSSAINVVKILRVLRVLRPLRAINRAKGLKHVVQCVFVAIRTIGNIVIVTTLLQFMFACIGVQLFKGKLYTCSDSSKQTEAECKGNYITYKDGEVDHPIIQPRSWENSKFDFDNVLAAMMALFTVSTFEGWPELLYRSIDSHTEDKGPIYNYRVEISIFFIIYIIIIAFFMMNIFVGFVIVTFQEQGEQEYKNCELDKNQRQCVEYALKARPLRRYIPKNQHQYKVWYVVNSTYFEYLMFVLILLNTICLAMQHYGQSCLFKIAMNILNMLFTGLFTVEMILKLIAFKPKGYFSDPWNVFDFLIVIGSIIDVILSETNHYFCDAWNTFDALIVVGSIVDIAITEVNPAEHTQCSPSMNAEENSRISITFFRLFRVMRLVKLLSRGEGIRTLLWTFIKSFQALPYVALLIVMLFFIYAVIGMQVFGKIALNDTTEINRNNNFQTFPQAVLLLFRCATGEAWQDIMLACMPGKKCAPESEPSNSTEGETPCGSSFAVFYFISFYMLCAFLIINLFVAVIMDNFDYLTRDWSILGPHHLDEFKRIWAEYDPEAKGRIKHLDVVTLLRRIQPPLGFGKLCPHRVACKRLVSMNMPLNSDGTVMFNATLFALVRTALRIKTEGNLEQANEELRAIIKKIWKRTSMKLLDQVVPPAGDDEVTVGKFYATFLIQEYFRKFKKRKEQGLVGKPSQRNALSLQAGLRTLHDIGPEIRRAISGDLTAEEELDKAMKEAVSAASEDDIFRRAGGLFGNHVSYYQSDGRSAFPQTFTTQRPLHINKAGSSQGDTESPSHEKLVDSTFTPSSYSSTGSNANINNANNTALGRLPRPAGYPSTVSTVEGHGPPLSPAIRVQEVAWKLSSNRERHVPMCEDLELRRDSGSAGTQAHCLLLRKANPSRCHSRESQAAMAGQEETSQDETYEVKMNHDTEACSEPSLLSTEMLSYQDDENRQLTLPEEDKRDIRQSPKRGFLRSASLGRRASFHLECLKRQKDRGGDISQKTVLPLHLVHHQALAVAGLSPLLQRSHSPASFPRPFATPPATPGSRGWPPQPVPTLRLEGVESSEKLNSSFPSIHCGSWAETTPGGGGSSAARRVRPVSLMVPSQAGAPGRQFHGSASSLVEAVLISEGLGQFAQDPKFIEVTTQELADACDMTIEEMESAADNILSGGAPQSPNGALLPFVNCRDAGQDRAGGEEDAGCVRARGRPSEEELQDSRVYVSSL
T1 sequence (P54289 25-944 partner limits assumed): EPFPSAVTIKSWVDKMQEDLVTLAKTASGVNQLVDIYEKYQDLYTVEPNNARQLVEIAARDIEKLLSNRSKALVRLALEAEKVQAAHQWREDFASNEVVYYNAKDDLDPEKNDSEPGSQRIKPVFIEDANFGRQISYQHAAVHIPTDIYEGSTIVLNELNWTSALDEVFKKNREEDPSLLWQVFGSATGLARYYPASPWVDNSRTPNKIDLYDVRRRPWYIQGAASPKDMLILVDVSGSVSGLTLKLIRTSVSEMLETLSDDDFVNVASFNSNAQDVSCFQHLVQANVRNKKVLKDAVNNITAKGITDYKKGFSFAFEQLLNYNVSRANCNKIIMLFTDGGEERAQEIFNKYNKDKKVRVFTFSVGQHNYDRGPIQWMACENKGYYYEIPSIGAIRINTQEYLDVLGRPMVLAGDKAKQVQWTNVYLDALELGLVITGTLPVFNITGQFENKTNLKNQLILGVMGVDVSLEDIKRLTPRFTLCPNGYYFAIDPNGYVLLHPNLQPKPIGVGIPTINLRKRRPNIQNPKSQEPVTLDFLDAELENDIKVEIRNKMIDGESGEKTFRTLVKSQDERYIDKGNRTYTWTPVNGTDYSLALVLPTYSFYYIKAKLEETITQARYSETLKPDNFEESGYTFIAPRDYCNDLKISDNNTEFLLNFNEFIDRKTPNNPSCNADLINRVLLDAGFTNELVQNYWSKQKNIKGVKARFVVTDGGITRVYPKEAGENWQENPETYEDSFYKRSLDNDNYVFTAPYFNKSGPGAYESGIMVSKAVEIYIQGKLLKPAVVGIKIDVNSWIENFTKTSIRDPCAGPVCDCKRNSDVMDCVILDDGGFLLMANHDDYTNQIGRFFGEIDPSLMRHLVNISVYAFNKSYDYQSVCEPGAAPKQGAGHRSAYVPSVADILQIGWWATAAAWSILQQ
T1 sequence (P54289 945-1103 partner limits assumed): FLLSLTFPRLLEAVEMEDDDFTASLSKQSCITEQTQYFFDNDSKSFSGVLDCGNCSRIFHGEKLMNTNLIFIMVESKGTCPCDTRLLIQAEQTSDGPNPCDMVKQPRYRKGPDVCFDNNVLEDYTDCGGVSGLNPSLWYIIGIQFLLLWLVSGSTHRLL
T1 sequence (Q08289 whole entry partner): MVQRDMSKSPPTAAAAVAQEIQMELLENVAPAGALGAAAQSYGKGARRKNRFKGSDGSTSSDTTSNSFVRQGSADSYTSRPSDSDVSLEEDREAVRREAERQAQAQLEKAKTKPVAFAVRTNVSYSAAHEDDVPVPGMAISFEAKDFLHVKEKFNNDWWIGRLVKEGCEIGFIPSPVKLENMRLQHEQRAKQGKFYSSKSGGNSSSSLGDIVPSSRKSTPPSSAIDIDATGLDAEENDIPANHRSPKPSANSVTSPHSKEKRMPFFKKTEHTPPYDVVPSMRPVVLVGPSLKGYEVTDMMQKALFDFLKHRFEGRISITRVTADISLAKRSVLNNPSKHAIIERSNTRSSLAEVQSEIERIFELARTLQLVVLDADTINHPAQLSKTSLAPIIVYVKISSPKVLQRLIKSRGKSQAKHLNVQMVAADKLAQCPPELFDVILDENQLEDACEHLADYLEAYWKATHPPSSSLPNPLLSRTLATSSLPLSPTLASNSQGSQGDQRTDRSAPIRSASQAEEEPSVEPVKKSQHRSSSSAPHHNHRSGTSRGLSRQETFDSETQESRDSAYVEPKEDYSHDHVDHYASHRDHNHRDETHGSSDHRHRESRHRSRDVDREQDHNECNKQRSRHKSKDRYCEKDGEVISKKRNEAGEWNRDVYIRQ

`COC(=O)C1C(c2ccccc2)C2(C(=O)OC)C(C)=NC1(C)CC2C[Si](C)(C)C` (stereo not drawn) [Example 1, Dimethyl 1,3-dimethyl-5-phenyl-8-[(trimethylsilyl)methyl]-2-azabicyclo[2.2.2]oct-2-ene-4,6-dicarboxylate]: the Ki (in general, the equilibrium dissociation constant of an inhibitor or competing ligand from its target) was 17 µM.

For the compound `COC(=O)C1C(c2ccccc2)C2(C(=O)OC)C(C)=NC1(C)CC2c1ccccc1` (stereo not drawn) [Example 2], the Ki under setting [1] was 34 µM.

As for `COC(=O)C1C(c2ccccc2)C2(C(=O)OC)C(C)=NC1(C)C1CC=CC12` (stereo not drawn) [Example 3, Dimethyl 1,4A,7,8A-tetrahydro-1,3-dimethyl-8-phenyl-1,4-ethano-4H-2-azetidinyl-4,9-dicarboxylate], the Ki under setting [1] came out at 61 µM.
